We go through 13 compounds from PubChem BioAssay (NCI).

What all share (test): NCI anticancer screen, dose series, 48 h
Experiment [1] deals with HCT-116 colon.
Experiment [2] deals with SK-MEL-28 melanoma.
Experiment [3] relates to MOLT-4 leukemia.
For experiment [4], the system named is HOP-92 NSCLC.
The subject of experiment [5] is 786-0 renal.
The subject of experiment [6] is NCI-H23 lung.
In experiment [7] the test system is LOX IMVI melanoma.
In experiment [8] the test system is SNB-75 CNS.
Experiment [9] has as its system UO-31 renal.

Molecules are shown by their SMILES.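 Tested at 5 concentrations; 48 h exposure; 96-well plates; endpoints linearly interpolated, else capped at highest concentration. Here, GI50 denotes the concentration required for 50% inhibition of growth. At the TGI there is no net growth.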 Where only a bound is given, the exact number is not on record here.

Turning to `C=CCC[CH2][Sn]([c]1ccccc1)([c]1ccccc1)[c]1ccccc1`, the GI50 in experiment [1] is 0.977 µM; in experiment [2] it was 1.84 µM; in experiment [3] it was 1.26 µM; in experiment [4] it was 1.78 µM; in experiment [5], 1.54 µM; in experiment [6], 1.64 µM. The GI50 in experiment [7] is 1.16 µM; in experiment [8], 2.49 µM; in experiment [9] it was 1.89 µM. Further, the TGI worked out at 2.15 µM in [1]; 3.47 µM in experiment [2]; 5.27 µM in experiment [3]; 3.38 µM in experiment [4]; 2.87 µM in [5]; 3.01 µM in [6]. Moreover, the values for the TGI in [7], in [8] and in experiment [9] were 2.38 µM, 6.88 µM and 3.36 µM, respectively.

As for `COc1ccc2nc(-c3cccs3)cc(C(O)CN3CCSCC3)c2c1` (configuration not stated), the TGI in experiment [2] was 77.4 µM; in experiment [3] it was 56.3 µM; in experiment [4] it was 62.1 µM; in [5], 46.2 µM; in experiment [6], 55.4 µM; in experiment [7] it was 34.4 µM. Besides, the figures for the TGI in experiment [8] and in experiment [9] were 78.7 µM and 60.8 µM, respectively.

Consider `CC1=C(Oc2ccccc2)C(CCC(=O)O)c2c(O)cc(Cl)c(O)c21` (configuration not stated), for which the TGI in experiment [1], in experiment [2], in [3], in [4], in experiment [5] and in [6] was greater than 100 µM in each case. The TGI in experiment [7] and in experiment [9] was greater than 100 µM throughout.

Turning to `COc1cc(C(=O)C/C(CCCC(=O)Nc2ccccc2[N+](=O)[O-])=N/NC(=O)c2cc3ccccc3cc2O)ccc1O`, the TGI in experiment [1] is greater than 100 µM; in experiment [2] it was greater than 100 µM; in experiment [3], 77 µM; in experiment [4], greater than 100 µM; in experiment [5], greater than 100 µM; in experiment [6] it was greater than 100 µM. Moreover, the TGI in experiment [7] is greater than 65.4 µM; in experiment [8] it was greater than 100 µM; in experiment [9] it was greater than 100 µM.

In the case of `COc1ccc(-c2ccc(/C=N/n3c(COc4ccc(Cl)cc4Cl)nn(CN4CCOCC4)c3=S)o2)c([N+](=O)[O-])c1`, the GI50 in experiment [1] is 16.5 µM; in experiment [2], 27.7 µM; in experiment [3], 19.4 µM; in [4], 0.829 µM; in experiment [5], 32.5 µM; in experiment [6] it was 22.5 µM. Moreover, the GI50 in experiment [9] is 42.7 µM. For the same compound, the TGI in [1] was 30.1 µM; in experiment [2], 86.8 µM; in experiment [3], 63.3 µM; in experiment [4] it was 27.6 µM; in [5] it was greater than 100 µM; in experiment [6] it was 66.7 µM. The TGI in [9] is greater than 100 µM.

In the case of `CCN(CC)c1ccc(C(=O)c2ccccc2C(=O)O)c(O)c1`, the TGI in experiment [1], in experiment [2], in [3], in [4], in [5] and in [6] was greater than 100 µM throughout. For the same compound, the TGI in [7], in [8] and in experiment [9] was greater than 100 µM each time.

Consider `Cc1cc(N(CCC#N)CCC#N)ccc1N=Nc1cccc(C(=O)O)c1`, for which the TGI in [2], in experiment [3], in [5], in [6], in experiment [7] and in experiment [8] was greater than 100 µM in each case. Moreover, the TGI in experiment [9] was greater than 100 µM.

On to `O=C(N/C(=C\c1ccc2c(c1)OCO2)c1nc2ccccc2[nH]1)c1ccccc1`, for which the TGI in [1] was greater than 89 µM; in [2], 52.1 µM; in experiment [3] it was 56.9 µM; in [4], 58.7 µM; in [5], greater than 100 µM; in experiment [6] it was 53.4 µM. The results for the TGI in experiment [7], in experiment [8] and in experiment [9] were greater than 100 µM, greater than 74 µM and 99.8 µM, respectively.

As to `Cc1c(C(=O)C/C(=N\O)C(=O)Nc2cc(Cl)c(Cl)cc2Cl)[n+](=O)c2ccccc2n1[O-]`, the TGI in [1] was 17 µM; in experiment [2], 52.1 µM; in [3], 32.8 µM; in experiment [4], 46.2 µM; in experiment [5], greater than 100 µM; in experiment [6], 65.6 µM. In addition, the TGI is 43.6 µM in experiment [7], greater than 100 µM in experiment [8] and 78.2 µM in experiment [9].

As for `N#Cc1c(N2CCCC2)[nH]c(=O)c(C(c2c(Cl)cccc2Cl)c2c(O)c(C#N)c(N3CCCC3)[nH]c2=O)c1O`, the GI50 in [1] was 14.7 µM; in experiment [2] it was 5.34 µM; in experiment [3], greater than 100 µM; in experiment [4], 10.2 µM; in experiment [5], 4.34 µM; in [6], 11.6 µM. Also, the GI50 in experiment [7] is 11.6 µM; in experiment [8] it was 12.5 µM; in [9], 16.1 µM. Moreover, the TGI in [1] was 40 µM; in experiment [2], 40.6 µM; in [3] it was greater than 100 µM; in experiment [4], 28.5 µM; in experiment [5], greater than 100 µM; in experiment [6] it was 31 µM. Further, the TGI in experiment [7] was found to be 37.2 µM; in experiment [8] it was 33 µM; in experiment [9], 35.9 µM.

`CC1=C(C)C(=O)c2c(cc3ccccn23)C1=O`: the TGI in experiment [2] was 34 µM; in experiment [3], greater than 100 µM; in experiment [5] it was 72.9 µM; in [6] it was 23.3 µM; in experiment [7], 19.1 µM; in [8], 43.1 µM. Besides, in [9], the TGI came out at 65.1 µM.

On to `COC(=O)C(=O)C1(CCC(C)=O)c2ccccc2-c2c(C)ccc(C)c21` (configuration not stated), for which the TGI in experiment [1] was greater than 100 µM; in [2], greater than 100 µM; in [3] it was 66 µM; in experiment [5], greater than 100 µM; in experiment [6], greater than 100 µM; in [7], greater than 100 µM. Moreover, the TGI in experiment [8] and in experiment [9] was greater than 100 µM in each case.

For the compound `COc1cc(OC(C)=O)cc2c(OC(C)=O)ccc(OC(C)=O)c12`, the TGI in experiment [1] is greater than 100 µM; in [2], greater than 100 µM; in experiment [3], greater than 100 µM; in experiment [4], 46.7 µM; in experiment [5] it was greater than 100 µM; in experiment [6], greater than 100 µM. In addition, the TGI in experiment [7] and in experiment [9] was greater than 100 µM in each case.
